Test results from patent publication US20150353495A1 (PORTOLA PHARMACEUTICALS, INC., priority 2010, published 2015).

Assays:
[1] = biological target: T1, JAK2 (Homo sapiens, UniProt O60674); experiment: Z'-LYTE kinase assay JAK2; format: biochemical
T1 construct: 5 μl of catalytic domain recombinant Kinase enzyme+Tyr peptide substrate (Invitrogen, CA); purchased Invitrogen
In short: (§1)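 Catalytic-domain recombinant kinase was incubated with Tyr6 FRET peptide, ATP and compound (1% DMSO final) for 1 h at room temperature. Protease development followed for 1 h, cleaving only non-phosphorylated peptide. Inhibition of phosphorylation was read as coumarin/fluorescein FRET fluorescence.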

[2] = test system: JAK1/3 signaling to STAT5 in primary T cells; experiment: IL2 stimulation of JAK1/3 signaling to STAT5 in primary T cells (pSTAT5 Y694, FACS); format: cell-based; settings: T-cell; for inhibition at 0.2 µM: 0.2 uM compound, read-out: IL-2/STAT5 Percent Inhibition at 0.2 uM; for inhibition at 1 µM: 1.0 μM compound, read-out: IL-2/STAT5 Percent Inhibition at 1.0 μM
Procedure: IL2 Stimulation of JAK1/3 Signaling to STAT5 in Primary T Cells:
The effect of JAK inhibitors on cytokine signaling pathways utilizing JAK3 was determined using an IL2 stimulation assay. IL2 engages a receptor complex that contains the IL2 receptor alpha and beta subunits, and the common gamma chain, to initiate activation of JAK1 and JAK3 leading to phosphorylation of STAT5 at tyrosine position 694. Lymphocytes are isolated from heparinized whole blood over a ficoll gradient, then resuspended in tissue culture media containing 10% fetal calf serum at 10×10̂6 cells/ml. 100 μl aliquots are pre-treated for 1 hour with various concentrations of compound, and then stimulated for 12 minutes with 100 U/ml IL2. The signaling reaction is terminated by fixing in 2% paraformaldehyde for 10 minutes at room temperature. Fixed cells are then washed and permeablized by suspension in 50% methanol (in PBS) at −80° C. Following overnight incubation at 4° C., cells are washed and resuspended in PBS containing 0.5% bovine serum albumin containing CD3-APC and pSTAT5 Y694-PE conjugated antibodies. After 1 hour incubation, cells are washed and the extent of STAT5 phosphorlyation in T cells is measured by FACS analysis.

[3] = biological target: T2, TYK2 (Homo sapiens, UniProt P29597); experiment: Z'-LYTE kinase assay TYK2; format: biochemical
T2 construct: 5 μl of catalytic domain recombinant Kinase enzyme+Tyr peptide substrate (Invitrogen, CA); purchased Invitrogen
T2 sequence (P29597 897-1176 limits assumed): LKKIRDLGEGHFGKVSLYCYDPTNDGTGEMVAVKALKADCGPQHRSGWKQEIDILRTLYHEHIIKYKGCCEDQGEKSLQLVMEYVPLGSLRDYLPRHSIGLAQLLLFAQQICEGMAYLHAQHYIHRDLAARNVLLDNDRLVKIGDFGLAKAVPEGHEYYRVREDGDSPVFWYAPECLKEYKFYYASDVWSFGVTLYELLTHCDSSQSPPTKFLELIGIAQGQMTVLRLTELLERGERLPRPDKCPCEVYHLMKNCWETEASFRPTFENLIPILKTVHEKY
In short: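 Recombinant catalytic-domain TYK2 with Tyr6 peptide in Z′-LYTE FRET format, 1% DMSO final, kinase reaction 1 h at room temperature, then protease development 1 h. Fluorescence read at 445/520 nm (excitation 400 nm), percent phosphorylation vs no-inhibitor control, IC50 from 4-parameter logistic fit.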

[4] = biological target: T3, JAK3 (Homo sapiens, UniProt P52333); experiment: Z'-LYTE kinase assay JAK3; format: biochemical
T3 construct: 5 μl of catalytic domain recombinant Kinase enzyme+Tyr peptide substrate (Invitrogen, CA); purchased Invitrogen
T3 sequence (P52333 822-1111 limits assumed): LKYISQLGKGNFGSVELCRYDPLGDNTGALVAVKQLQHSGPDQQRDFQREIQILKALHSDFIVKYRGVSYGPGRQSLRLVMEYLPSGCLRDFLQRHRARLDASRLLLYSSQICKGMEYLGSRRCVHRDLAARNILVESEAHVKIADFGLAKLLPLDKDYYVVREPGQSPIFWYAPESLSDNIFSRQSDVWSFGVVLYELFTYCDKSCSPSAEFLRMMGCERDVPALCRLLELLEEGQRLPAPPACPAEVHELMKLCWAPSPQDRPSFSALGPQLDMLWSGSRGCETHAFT
In short: as §1

[5] = biological target: T4, JAK1 (Homo sapiens, UniProt P23458); experiment: Z'-LYTE kinase assay JAK1; format: biochemical
T4 construct: 5 μl of catalytic domain recombinant Kinase enzyme+Tyr peptide substrate (Invitrogen, CA); purchased Invitrogen
T4 sequence (P23458 875-1153 limits assumed): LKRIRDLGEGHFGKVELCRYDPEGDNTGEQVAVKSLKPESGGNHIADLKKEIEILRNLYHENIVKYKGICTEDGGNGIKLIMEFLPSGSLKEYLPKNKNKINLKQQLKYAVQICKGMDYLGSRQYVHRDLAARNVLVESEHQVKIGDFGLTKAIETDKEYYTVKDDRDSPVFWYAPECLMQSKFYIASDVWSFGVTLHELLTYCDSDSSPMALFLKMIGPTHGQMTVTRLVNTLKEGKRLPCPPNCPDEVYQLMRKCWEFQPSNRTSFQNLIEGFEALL
In short: as §1

T1 sequence (O60674 849-1124 limits assumed): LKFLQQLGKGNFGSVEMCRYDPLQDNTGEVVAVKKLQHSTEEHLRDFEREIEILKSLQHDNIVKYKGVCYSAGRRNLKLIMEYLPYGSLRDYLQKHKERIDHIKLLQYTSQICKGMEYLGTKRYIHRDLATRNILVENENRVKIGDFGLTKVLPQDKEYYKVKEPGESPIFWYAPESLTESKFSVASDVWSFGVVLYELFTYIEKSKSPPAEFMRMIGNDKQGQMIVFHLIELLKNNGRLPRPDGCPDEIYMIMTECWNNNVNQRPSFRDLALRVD

| IC50 [1] | IC50 [3] | IC50 [4] | IC50 [5] | SMILES | inhibition at 0.2 µM [2] | inhibition at 1 µM [2] |
| --- | --- | --- | --- | --- | --- | --- |
| 100 to 1000 nM | > 1000 nM | 10 to 100 nM | 100 to 1000 nM | NC(=O)c1cnc(Nc2cccc(C(=O)N3CCC3)c2)cc1NCc1ccccc1 [Example 45, 6-(3-(azetidine-1-carbonyl)phenylamino)-4-(benzylamino)nicotinamide] | 22% | 25% |
| 10 to 100 nM | 10 to 100 nM | 1 to 10 nM | 10 to 100 nM | CCC(=O)N1CCC(c2ccc(Nc3cc(NCc4cccc5[nH]ccc45)c(C(N)=O)cn3)cc2)CC1 [Example 200, 4-((1H-indol-4-yl)methylamino)-6-(4-(1-propionylpiperidin-4-yl)phenylamino)nicotinamide] | 77% | 103% |
| 10 to 100 nM | 100 to 1000 nM | 1 to 10 nM | 100 to 1000 nM | NC(=O)c1cnc(Nc2ccc(C3CCNCC3)cc2)cc1NCc1cccc(F)c1F [Example 209, 4-(2,3-difluorobenzylamino)-6-(4-(piperidin-4-yl)phenylamino)nicotinamide] | 70% | 99% |
| 10 to 100 nM | > 1000 nM | 1 to 10 nM | > 1000 nM | Cc1cc(Nc2cc(NCc3cccc4cc[nH]c34)c(C(N)=O)cn2)ccc1C(=O)N(C)C [Example 283, 4-((1H-indol-7-yl)methylamino)-6-(4-(dimethylcarbamoyl)-3-methylphenylamino)nicotinamide] | 42% | 65% |
| 100 to 1000 nM | > 1000 nM | 10 to 100 nM | > 1000 nM | COc1ccc(Nc2cc(NCc3cccc4ccsc34)c(C(N)=O)cn2)cc1 [Example 284, 4-(benzo[b]thiophen-7-ylmethylamino)-6-(4-methoxyphenylamino)nicotinamide] | 39% | 75% |
| 10 to 100 nM | 100 to 1000 nM | < 1 nM | 10 to 100 nM | Cc1cc(Nc2cc(NCc3cccc4ccsc34)c(C(N)=O)cn2)ccc1C(=O)N(C)C [Example 285, 4-(benzo[b]thiophen-7-ylmethylamino)-6-(4-(dimethylcarbamoyl)-3-methylphenylamino)nicotinamide] | 58% | 96% |
| 10 to 100 nM | 100 to 1000 nM | 1 to 10 nM | 10 to 100 nM | COc1ccc(Nc2cc(NCc3cccc4[nH]ccc34)c(C(N)=O)cn2)cc1 [Example 294, 4-((1H-indol-4-yl)methylamino)-6-(4-methoxyphenylamino)nicotinamide] | 75% | 102% |
| 100 to 1000 nM | 100 to 1000 nM | 1 to 10 nM | 100 to 1000 nM | NC(=O)c1cnc(Nc2ccc(F)cc2)cc1NCc1cccc2[nH]ccc12 [Example 319, 4-((1H-indol-4-yl)methylamino)-6-(4-fluorophenylamino)nicotinamide] | 81% | 103% |
| 10 to 100 nM | 10 to 100 nM | 1 to 10 nM | 10 to 100 nM | CS(=O)(=O)c1ccc(Nc2cc(NCc3cccc4[nH]ccc34)c(C(N)=O)cn2)cc1 [Example 320, 4-((1H-indol-4-yl)methylamino)-6-(4-(methylsulfonyl)phenylamino)nicotinamide] | 90% | 108% |
| 100 to 1000 nM | > 1000 nM | 10 to 100 nM | 100 to 1000 nM | NC(=O)c1cnc(Nc2ccc(OC(F)F)cc2)cc1NCc1cccc2[nH]ccc12 [Example 321, 4-((1H-indol-4-yl)methylamino)-6-(4-(difluoromethoxy)phenylamino)nicotinamide] | 42% | 94% |
| > 1000 nM | > 1000 nM | 100 to 1000 nM | > 1000 nM | NC(=O)c1cnc(Nc2ccc(OC(F)(F)F)cc2)cc1NCc1cccc2[nH]ccc12 [Example 322, 4-((1H-indol-4-yl)methylamino)-6-(4-(trifluoromethoxy)phenylamino)nicotinamide] | 27% | 70% |
| 10 to 100 nM |  | 1 to 10 nM | 100 to 1000 nM | CC(=O)N1CC(c2ccc(Nc3cc(NCc4cccc5ccsc45)c(C(N)=O)cn3)cc2)C1 [Example 333, 6-(4-(1-acetylazetidin-3-yl)phenylamino)-4-(benzo[b]thiophen-7-ylmethylamino)nicotinamide] | 35% | 84% |
| > 1000 nM |  | 10 to 100 nM | > 1000 nM | NC(=O)c1cnc(Nc2ccc(N3CCN(c4ccccn4)CC3)cc2)cc1NCc1ccccc1 [Example 385] | 37% | 62% |
| 100 to 1000 nM | 100 to 1000 nM | 1 to 10 nM | 100 to 1000 nM | CS(=O)(=O)Nc1cccc(Nc2cc(NCc3ccccc3)c(C(N)=O)cn2)c1 [Example 388] | 18% | 55% |
| 100 to 1000 nM | 100 to 1000 nM | 1 to 10 nM | 100 to 1000 nM | CS(=O)(=O)Nc1ccc(Nc2cc(NCc3ccccc3)c(C(N)=O)cn2)cc1 [Example 389] | 56% | 88% |
| 100 to 1000 nM |  | 1 to 10 nM | 100 to 1000 nM | CN(C)C(=O)c1ccc(Nc2cc(NCc3cccc(-c4ccncc4)c3)c(C(N)=O)cn2)cc1 [Example 412, 6-(4-(dimethylcarbamoyl)phenylamino)-4-(3-(pyridine-4-yl)benzylamino)nicotinamide] | 25% | 59% |
| 10 to 100 nM | 100 to 1000 nM | 1 to 10 nM | 100 to 1000 nM | CCC(=O)N1CCN(c2ccc(Nc3cc(NCc4cccc(F)c4F)c(C(N)=O)cn3)cc2)CC1 [Example 435, 4-(2,3-difluorobenzylamino)-6-(4-(4-propionylpiperazin-1-yl)phenylamino)nicotinamide] | 63% | 102% |
| 10 to 100 nM | 100 to 1000 nM | < 1 nM | 100 to 1000 nM | Cc1cc(Nc2cc(NCc3cccc4ccsc34)c(C(N)=O)cn2)ccc1C(=O)N1CCC1 [Example 457, 6-(4-(azetidine-1-carbonyl)-3-methylphenylamino)-4-(benzo[b]thiophen-7-ylmethylamino)nicotinamide] | 56% | 100% |
| 10 to 100 nM | 10 to 100 nM | 1 to 10 nM | 100 to 1000 nM | Cc1cc(Nc2cc(NCc3cccc4ccsc34)c(C(N)=O)cn2)ccc1C(=O)N1CCCC1 [Example 458, 4-(benzo[b]thiophen-7-ylmethylamino)-6-(3-methyl-4-(pyrrolidine-1-carbonyl)phenylamino)nicotinamide] | 49% | 104% |
| < 1 nM | 1 to 10 nM | < 1 nM | 1 to 10 nM | Cc1cc(Nc2cc(NCc3cccc4[nH]ccc34)c(C(N)=O)cn2)ccc1C(=O)N1CCCC1 [Example 461, 4-((1H-indol-4-yl)methylamino)-6-(3-methyl-4-(pyrrolidine-1-carbonyl)phenylamino)nicotinamide] | 94% | 101% |
| 10 to 100 nM | > 1000 nM | 1 to 10 nM | > 1000 nM | Cc1cc(Nc2cc(NCc3cccc4cc[nH]c34)c(C(N)=O)cn2)ccc1C(=O)N1CCCC1 [Example 464, 4-((1H-indol-7-yl)methylamino)-6-(3-methyl-4-(pyrrolidine-1-carbonyl)phenylamino)nicotinamide] | 22% | 55% |
